This note sets out measurements from ChEMBL document CHEMBL3880415, “Spiro (Piperidine-4,2''-Pyrrolidine)-1-(3,5-Trifluoromethyl Phenyl) Methylcarboxamides As NK1 Tachikynin Receptor Antagonists” (2011).

Where only a bound is given, the exact number is not on record here.

The target of one experiment is Substance-P receptor (Homo sapiens, UniProt P25103). Nature of the experiment: Antagonist at human NK1 receptor expressed in recombinant BacMam virus infected human U2OS cells assessed as inhibition of substance P-induced intracellular calcium release preincubated for 30 mins followed by substance P addition by Fluo-4 calcium dye-based FLIPR assay. The experiment is classed as functional, cell-based.
Chain of Substance-P receptor (P25103 whole entry): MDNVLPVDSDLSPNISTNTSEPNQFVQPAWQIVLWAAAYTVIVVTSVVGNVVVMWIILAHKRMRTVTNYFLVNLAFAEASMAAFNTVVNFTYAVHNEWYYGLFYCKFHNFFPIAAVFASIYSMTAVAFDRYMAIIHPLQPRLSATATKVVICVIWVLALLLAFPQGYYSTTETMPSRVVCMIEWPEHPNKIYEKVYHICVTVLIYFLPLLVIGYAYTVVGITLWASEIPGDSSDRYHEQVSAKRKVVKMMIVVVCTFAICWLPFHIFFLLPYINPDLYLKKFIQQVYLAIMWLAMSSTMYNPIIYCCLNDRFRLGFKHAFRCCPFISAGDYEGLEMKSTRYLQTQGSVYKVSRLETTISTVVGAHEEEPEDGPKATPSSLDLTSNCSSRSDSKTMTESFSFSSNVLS
Settings: not given
Regarding `Cc1cc(F)ccc1[C@H]1C[C@@]2(CCN1C(=O)N(C)[C@H](C)c1cc(C(F)(F)F)cc(C(F)(F)F)c1)NCC[C@@H]2C(=O)O`, the Ki (commonly a dissociation constant, usually derived from enzyme kinetics or from competition with a known ligand) is less than 1 nM.
Take `Cc1cc(F)ccc1[C@H]1C[C@]2(CC[C@@H](C(N)=O)N2)CCN1C(=O)N(C)[C@H](C)c1cc(C(F)(F)F)cc(C(F)(F)F)c1`: the Ki is less than 1 nM.
Consider `Cc1cc(F)ccc1[C@H]1C[C@]2(CC[C@H](C(N)=O)N2)CCN1C(=O)N(C)[C@@H](C)c1cc(C(F)(F)F)cc(C(F)(F)F)c1`, for which the Ki was less than 1 nM.
On the same count and under the same terms, in the case of `Cc1cc(F)ccc1[C@H]1C[C@@]2(CCN1C(=O)N(C)[C@H](C)c1cc(C(F)(F)F)cc(C(F)(F)F)c1)CC(C(=O)O)CN2` (stereo not given in full) it was less than 1 nM; in that of `Cc1cc(F)ccc1[C@H]1C[C@]2(CC[C@H](C(N)=O)N2)CCN1C(=O)N(C)[C@H](C)c1cc(C(F)(F)F)cc(C(F)(F)F)c1`, less than 1 nM; in that of `Cc1cc(F)ccc1[C@H]1C[C@]2(CC[C@@H](C(N)=O)N2)CCN1C(=O)N(C)[C@@H](C)c1cc(C(F)(F)F)cc(C(F)(F)F)c1`, less than 1 nM.
On the same count and under the same terms, the value for `Cc1cc(F)ccc1[C@H]1C[C@]2(CC[C@@H](C(N)=O)N2)CCN1C(=O)N(C)Cc1cc(C(F)(F)F)cc(C(F)(F)F)c1` was less than 1 nM; that for `Cc1cc(F)ccc1[C@H]1C[C@]2(CC[C@H](C(N)=O)N2)CCN1C(=O)N(C)Cc1cc(C(F)(F)F)cc(C(F)(F)F)c1` was less than 1 nM; that for `Cc1cc(F)ccc1[C@H]1C[C@]2(CCCN2)CCN1C(=O)N(C)[C@H](C)c1cc(C(F)(F)F)cc(C(F)(F)F)c1` was less than 1 nM.

Still in this experiment, the particulars now being: u2os.
`Cc1cc(F)ccc1[C@H]1C[C@@]2(CCC(C(N)=O)N2)CCN1C(=O)N(C)[C@H](C)c1cc(C(F)(F)F)cc(C(F)(F)F)c1` (stereo not given in full): the pKi (in general, the Ki on a negative log10 scale, so that one unit is a factor of ten) was more than 9.
